One assay relates to MCF7. In words: Antiproliferative activity against human MCF7 cells. It is filed as functional, cell-based.
The subject of another assay is HT-29. In words: Antiproliferative activity against human HT-29 cells. It is filed as functional, cell-based.

One may read the IC50 as the point on the concentration scale where inhibition reaches its midpoint. Low readings indicate inhibition by little substance, high ones a need for much substance.

With `CCOC(=O)N1CCC(Nc2cc(Cl)cc3c(S(=O)(=O)N4CCOC(COc5ccccc5)C4)c(C(N)=O)[nH]c23)CC1` (stereo not drawn), the figures for the IC50 in the assay on MCF7 and in the assay on HT-29 were 900 nM and 1700 nM, respectively.

Consider `NC(=O)c1[nH]c2c(NC3CCOCC3)cc(Cl)cc2c1S(=O)(=O)N1CCOC(COc2ccccc2)C1` (stereo not drawn), for which the IC50 was 800 nM in the assay on MCF7 and 2800 nM in the assay on HT-29.

As for `NC(=O)c1[nH]c2c(N)cc(Cl)cc2c1S(=O)(=O)N1CCOC(COc2ccccc2)C1` (stereo not drawn), the IC50 with MCF7 is 2200 nM; in the assay on HT-29 it was > 10000 nM.

Regarding `N#CCCNc1cc(Cl)cc2c(S(=O)(=O)N3CCOC(COc4ccccc4)C3)c(C(N)=O)[nH]c12` (stereo not drawn), the IC50 in the assay on MCF7 was < 1000 nM; in the assay on HT-29 it was 5300 nM.

These data come from ChEMBL document CHEMBL2321655, “Insulin-like growth factor-1 receptor inhibitors: a potential cancer treatment: patent highlight” (ACS Med Chem Lett, 2013).
